{
  "source": "patent US20260297031A1",
  "about": "“HYDROXYLAMINE-BASED BCR-ABL1 INHIBITORS FOR TREATMENT OF CANCER” (University of Georgia Research Foundation, Inc., priority 2023, published 2026)",
  "key": {"cSRC": {"biological_target": "cSRC (Homo sapiens, UniProt P12931)", "sequence (P12931 whole entry)": "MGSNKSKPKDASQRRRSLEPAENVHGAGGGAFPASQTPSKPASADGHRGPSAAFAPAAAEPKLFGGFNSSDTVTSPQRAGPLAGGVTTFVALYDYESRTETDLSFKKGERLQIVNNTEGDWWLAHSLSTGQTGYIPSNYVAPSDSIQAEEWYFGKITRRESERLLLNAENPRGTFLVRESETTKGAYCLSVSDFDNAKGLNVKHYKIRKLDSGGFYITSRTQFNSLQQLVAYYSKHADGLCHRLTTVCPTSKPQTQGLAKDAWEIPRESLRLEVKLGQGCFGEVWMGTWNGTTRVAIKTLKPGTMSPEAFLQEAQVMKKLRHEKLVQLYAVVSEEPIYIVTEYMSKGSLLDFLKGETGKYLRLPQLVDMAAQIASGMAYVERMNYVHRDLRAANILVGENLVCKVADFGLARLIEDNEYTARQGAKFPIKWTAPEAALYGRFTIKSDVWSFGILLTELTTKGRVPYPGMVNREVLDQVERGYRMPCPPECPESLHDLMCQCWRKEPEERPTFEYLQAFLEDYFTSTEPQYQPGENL", "experiment": "KinaseProfiler radiometric kinase assay, cSRC wt", "format": "biochemical", "conditions": "[ATP] = 10 μM; mean of n = 2"}, "Caco-2 cells": {"test_system": "Caco-2 cells", "experiment": "Caco-2 permeability", "conditions": "Papp (b − a/a − b)", "protocol": "Caco-2 Permeability (Independently Performed by Pharmaron Inc., Ningbo, CN)\nTo each well of the Transwell insert and reservoir were added 50 μL and 25 mL of cell culture medium, respectively. […] Following this, the Caco-2 plate was removed from the incubator and the monolayer washed twice with pre-warmed HBSS (10 mM HEPES, pH 7.4).\nTo determine the rate of drug transport in the apical to basolateral direction, 125 μL of the working solution of either test compounds or control compounds was added to the Transwell insert (apical compartment) and a 50 μL sample was immediately transported from the apical compartment to 200 μL of acetonitrile containing internal standard (100 nM alprazolam, 200 nM Caffeine and 100 nM tolbutamide) in a new 96-well plate as the initial donor sample (A-B). The sample was then vortexed at 1,000 rpm for 10 min. The receiver plate (basolateral compartment) wells were then filled with 235 μL of transport buffer. To determine the rate of drug transport in the basolateral to apical direction, 285 μL of the working solution of either test compounds or control compounds was added to the receiver plate wells (basolateral compartment) and a 50 μL sample was immediately transferred from the basolateral compartment to 200 μL of acetonitrile containing internal standard in a new 96-well plate as the initial donor sample (B-A). The sample was vortexed at 1,000 rpm for 10 min. The Transwell insert (apical compartment) was then filled with 75 μL of transport buffer and the apical to basolateral direction and the basolateral to apical direction were done at the same time. […] After incubation, 50 μL samples from donor sides (apical compartment for Ap→BI flux, and basolateral compartment for BI→Ap) and receiver sides (basolateral compartment for Ap→BI flux, and apical compartment for BI→Ap) were transferred to wells of a new 96-well plate, followed by the addition of 200 μL acetonitrile containing internal standard. All samples were vortexed for 10 min and then centrifuged at 3,220 g for 40 min. A 150 μL aliquot of the supernatant was then mixed with an appropriate volume of ultra-pure water prior to LC-MS/MS analysis.\n(§1) To monitor for monolayer integrity, Lucifer yellow leakage was determined after the 2 h transport period. This began by preparing a stock solution of Lucifer yellow in DMSO which was diluted with HBSS (10 mM HEPES, pH 7.4.) to reach a final concentration of 100 μM. To each Transwell insert (apical compartment) was then added 100 μL of the Lucifer yellow solution, followed by filling the wells in the receiver plate (basolateral compartment) with 300 μL of HBSS (10 mM HEPES, pH 7.4).\n(§2) The efflux ratio was determined using the following equation: […]"}, "[1]": {"experiment": "Metabolic stability in human hepatocytes", "protocol": "Metabolic Stability in Hepatocytes (Independently Performed by Pharmaron Inc., Ninqbo, CN)\nAfter thawing was complete, hepatocytes were transferred into a 50 mL conical tube containing thawing medium and the tube was then placed into a centrifuge and spun at 100 g for 10 min. […] Using AO/PI staining, cells were counted to determine the viable cell density. […] Subsequently, 2 μL of the 100 μM test compounds or control compound solutions was transferred into the respective wells of the 96-well non-coated plate to start the reaction. […] Aliquots of 100 μL of the supernatant were then diluted by 100 μL of ultra-pure water, and the mixture was analyzed by LC-MS/MS.\nAll calculations were carried out using Microsoft Excel. Peak areas were determined from extracted ion chromatograms. The in-vitro half-life (t1/2) of parent compound was determined by regression of the percent parent disappearance vs. time curve."}, "MDCKII-MDR1 cells": {"test_system": "MDCKII-MDR1 cells", "experiment": "MDCKII-MDR1 permeability", "protocol": "MDCKII-MDR1 Permeability (Independently Performed By: Pharmaron Inc., Ninqbo, CN)\nTo each well of the Transwell insert and reservoir were added 50 μL and 25 mL of cell culture medium, respectively.\nTo determine the rate of drug transport in the apical to basolateral direction, 125 μL of the working solution of either test compounds or control compounds was added to the Transwell insert (apical compartment) and a 50 μL sample was immediately transferred from the apical compartment to 200 μL of acetonitrile containing internal standard (100 nM alprazolam, 200 nM caffeine, and 100 nM tolbutamide) in a new 96-well plate as the initial donor sample (A-B). The sample was then vortexed at 1,000 rpm for 10 min. The receiver plate (basolateral compartment) wells were then filled with 235 μL transport buffer. To determine the rate of drug transport in the basolateral to apical direction, 285 μL of the working solution of either test compounds or control compounds was added to the receiver plate (basolateral compartment) wells and a 50 μL of sample was immediately transferred from the basolateral compartment to 200 μL of acetonitrile containing internal standard in a new 96-well plate as the initial donor sample (B-A). The sample was vortexed for 10 min at 1,000 rpm. The Transwell insert (apical compartment) was then filled with 75 μL of transport buffer and the apical to basolateral direction and the basolateral to apical direction were done at the same time. […] After incubation, 50 μL samples from donor sides (apical compartment for Ap→BI flux, and basolateral compartment BI→Ap) and receiver sides (basolateral compartment for Ap→BI flux, and apical compartment for BI→Ap) were transferred to wells of a new 96-well plate, followed by the addition of 200 μL acetonitrile containing internal standard. […] An aliquot of 100 μL of the supernatant was mixed with an appropriate volume of ultra-pure water before LC-MS/MS analysis.\nas §1, with “and” for “which was”\nas §2"}},
  "note": "pIC50: −log10 of the molar value.",
  "data": [
    {"smiles": "COc1cc(Nc2c(C#N)cnc3cc(OCCON4CCN(C)CC4)c(OC)cc23)c(F)cc1Cl", "note": "[Compound 15, 4-((4-chloro-2-fluoro-5-methoxyphenyl)amino)-6-methoxy-7-(2-((4-methylpiperazin-1-yl)oxy)ethoxy)quinoline-3-carbonitrile]", "values": [
      {"measurement": "pIC50", "setting": "cSRC", "value": 8.70},
      {"measurement": "Efflux Ratio", "setting": "Caco-2 cells", "value": 6.4},
      {"measurement": "remaining at 0.5 min", "setting": "[1]; hepatocytes", "value": 100, "unit": "%"},
      {"measurement": "remaining at 0.5 h", "setting": "[1]; hepatocytes", "value": 52.5, "unit": "%"},
      {"measurement": "remaining at 1 h", "setting": "[1]; hepatocytes", "value": 29.4, "unit": "%"},
      {"measurement": "remaining at 2 h", "setting": "[1]; hepatocytes", "value": 9.48, "unit": "%"},
      {"measurement": "t1/2", "setting": "[1]; hepatocytes", "value": 34.2, "unit": "min"},
      {"measurement": "efflux (P-gp), in words", "setting": "MDCKII-MDR1 cells; MDCKII-MDR1", "value": "no further improvement in drug efflux was seen"}
    ]},
    {"smiles": "COc1cc(Cl)ccc1Nc1c(C#N)cnc2cc(OCCON3CCN(C)CC3)c(OC)cc12", "note": "[Compound 20, 4-((4-Chloro-2-methoxyphenyl)amino)-6-methoxy-7-(2-((4-methylpiperazin-1-yl)oxy)ethoxy)quinoline-3-carbonitrile]", "values": [
      {"measurement": "pIC50", "setting": "cSRC", "value": 7.96},
      {"measurement": "Efflux Ratio", "setting": "Caco-2 cells", "value": 6.24},
      {"measurement": "stability in hepatocytes, in words", "setting": "[1]", "value": "good stability in human hepatocytes"},
      {"measurement": "remaining at 0.5 min", "setting": "[1]; hepatocytes", "value": 100, "unit": "%"},
      {"measurement": "remaining at 0.5 h", "setting": "[1]; hepatocytes", "value": 63.5, "unit": "%"},
      {"measurement": "remaining at 1 h", "setting": "[1]; hepatocytes", "value": 43.3, "unit": "%"},
      {"measurement": "remaining at 2 h", "setting": "[1]; hepatocytes", "value": 20.1, "unit": "%"},
      {"measurement": "efflux (P-gp), in words", "setting": "MDCKII-MDR1 cells; MDCKII-MDR1", "value": "reduced efflux ratios"},
      {"measurement": "permeability in MDCKII-MDR1 cells, in words", "setting": "MDCKII-MDR1 cells; MDCKII-MDR1", "value": "markedly improved permeability"}
    ]},
    {"smiles": "COc1cc2c(Nc3cccc(OC)c3Cl)c(C#N)cnc2cc1OCCON1CCN(C)CC1", "note": "[Compound 17, 4-((2-Chloro-3-methoxyphenyl)amino)-6-methoxy-7-(2-((4-methylpiperazin-1-yl)oxy)ethoxy)quinoline-3-carbonitrile]", "values": [
      {"measurement": "pIC50", "setting": "cSRC", "value": 7.85},
      {"measurement": "Efflux Ratio", "setting": "Caco-2 cells", "value": 3.58},
      {"measurement": "stability in hepatocytes, in words", "setting": "[1]", "value": "good stability in human hepatocytes"},
      {"measurement": "remaining at 0.5 min", "setting": "[1]; hepatocytes", "value": 100, "unit": "%"},
      {"measurement": "remaining at 0.5 h", "setting": "[1]; hepatocytes", "value": 80.6, "unit": "%"},
      {"measurement": "remaining at 1 h", "setting": "[1]; hepatocytes", "value": 60.5, "unit": "%"},
      {"measurement": "remaining at 2 h", "setting": "[1]; hepatocytes", "value": 35.8, "unit": "%"},
      {"measurement": "efflux (P-gp), in words", "setting": "MDCKII-MDR1 cells; MDCKII-MDR1", "value": "greatly reduced efflux ratio"},
      {"measurement": "fold enhancement in permeability", "setting": "MDCKII-MDR1 cells; MDCKII-MDR1, relative to bosutinib", "value": "31 -fold"}
    ]}
  ]
}
